Paper PMC11011526, “Identification of Inhibitors of the Disease-Associated Protein Phosphatase Scp1 Using Antibody Mimetic Molecules” (International Journal of Molecular Sciences, 2024)

Key:
Fcp1 = target: T1, Fcp1 (Homo sapiens, UniProt Q9Y5B0); experiment: colorimetric pNPP phosphatase assay, absorbance […] nm; type: biochemical; settings: 20 mM Na-maleate pH 5.5, 10 mM MgCl2; 10 mM pNPP; 37 °C; 60 min
T1 construct: gene CTDP1; recombinant, GST tag and Myc-His6 tag
T1 sequence (Q9Y5B0 1-961): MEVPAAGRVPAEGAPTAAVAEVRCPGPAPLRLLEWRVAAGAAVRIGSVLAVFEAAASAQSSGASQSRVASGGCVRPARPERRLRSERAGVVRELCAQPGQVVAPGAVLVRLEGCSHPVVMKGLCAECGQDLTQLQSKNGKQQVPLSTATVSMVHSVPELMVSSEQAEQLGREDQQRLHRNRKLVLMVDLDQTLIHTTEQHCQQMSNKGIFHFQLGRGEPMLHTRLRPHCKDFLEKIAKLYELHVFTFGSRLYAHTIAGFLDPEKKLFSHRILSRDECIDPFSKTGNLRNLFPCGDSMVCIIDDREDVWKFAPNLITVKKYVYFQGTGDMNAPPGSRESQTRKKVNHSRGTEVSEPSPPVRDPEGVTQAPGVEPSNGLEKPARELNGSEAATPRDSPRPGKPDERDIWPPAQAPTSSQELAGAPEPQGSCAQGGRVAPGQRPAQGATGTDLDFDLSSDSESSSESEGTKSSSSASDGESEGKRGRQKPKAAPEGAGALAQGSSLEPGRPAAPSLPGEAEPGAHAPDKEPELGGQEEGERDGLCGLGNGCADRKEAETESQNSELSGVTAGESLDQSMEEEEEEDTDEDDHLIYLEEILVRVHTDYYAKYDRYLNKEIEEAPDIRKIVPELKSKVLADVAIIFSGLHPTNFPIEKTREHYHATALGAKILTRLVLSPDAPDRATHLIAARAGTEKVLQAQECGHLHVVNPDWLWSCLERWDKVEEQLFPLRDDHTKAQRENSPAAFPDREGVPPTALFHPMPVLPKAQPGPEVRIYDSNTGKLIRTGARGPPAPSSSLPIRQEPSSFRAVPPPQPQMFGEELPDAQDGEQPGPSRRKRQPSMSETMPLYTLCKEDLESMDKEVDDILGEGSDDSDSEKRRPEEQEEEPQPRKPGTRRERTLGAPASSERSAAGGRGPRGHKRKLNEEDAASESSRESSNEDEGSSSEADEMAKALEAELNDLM

Scp2 = target: T2, Scp2 (Homo sapiens, UniProt O14595); experiment: as above; type: biochemical; settings: 20 mM Na-maleate pH 5.5, 10 mM MgCl2; 10 mM pNPP; 37 °C; 7 min
T2 construct: gene CTDSP2; recombinant, GST tag and Myc-His6 tag
T2 sequence (O14595 1-271): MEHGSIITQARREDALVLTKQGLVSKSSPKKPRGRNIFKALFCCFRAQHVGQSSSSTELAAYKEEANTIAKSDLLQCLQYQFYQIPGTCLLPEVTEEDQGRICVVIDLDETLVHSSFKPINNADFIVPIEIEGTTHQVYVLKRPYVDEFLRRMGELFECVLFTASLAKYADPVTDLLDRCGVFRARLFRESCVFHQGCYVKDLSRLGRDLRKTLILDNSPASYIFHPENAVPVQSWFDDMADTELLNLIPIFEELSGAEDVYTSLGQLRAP

Scp3 = target: T3, Scp3 (Homo sapiens, UniProt O15194); experiment: as above; type: biochemical; settings: 20 mM Na-maleate pH 5.5, 10 mM MgCl2; 10 mM pNPP; 37 °C; 7 min
T3 construct: gene CTDSPL; recombinant, GST tag and Myc-His6 tag
T3 sequence (O15194 1-276): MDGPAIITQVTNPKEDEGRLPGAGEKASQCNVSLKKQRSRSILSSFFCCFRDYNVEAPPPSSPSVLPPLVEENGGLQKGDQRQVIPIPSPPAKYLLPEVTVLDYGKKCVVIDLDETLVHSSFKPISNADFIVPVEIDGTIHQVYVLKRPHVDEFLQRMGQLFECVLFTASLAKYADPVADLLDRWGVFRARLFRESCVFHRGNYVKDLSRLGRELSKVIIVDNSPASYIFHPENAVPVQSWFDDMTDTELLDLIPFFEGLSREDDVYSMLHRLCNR

Scp1 [1] = target: T4, Scp1 (Homo sapiens, UniProt Q9GZU7); experiment: as above; type: biochemical; settings: 20 mM Na-maleate pH 5.5, 10 mM MgCl2; His6-Scp1 10 nM; no added adnectin
T4 construct: gene CTDSP1; recombinant in E. coli Rosetta, Talon purified; His6-Scp1 (kinetics) or GST-Scp1-Myc-His6 (specificity assay)
T4 sequence (Q9GZU7 1-261): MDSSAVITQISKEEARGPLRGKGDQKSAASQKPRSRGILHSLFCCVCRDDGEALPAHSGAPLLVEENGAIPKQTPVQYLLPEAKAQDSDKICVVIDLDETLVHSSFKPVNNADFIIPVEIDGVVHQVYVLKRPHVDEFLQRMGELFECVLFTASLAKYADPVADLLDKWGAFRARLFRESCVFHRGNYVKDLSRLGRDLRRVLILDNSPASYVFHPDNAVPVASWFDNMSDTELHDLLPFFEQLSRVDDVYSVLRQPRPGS

Scp1 [2] = target: T4, Scp1; experiment: competition ELISA against FG-1Adn binding; settings: 100 µM rabeprazole; 20 mM Na-maleate pH 5.5, 150 mM NaCl, 10 mM MgCl2; R.T.; indirect, displacement of adnectin FG-1Adn
FG-1Adn (human) = experiment: BLI; BLItz system, Advanced Kinetics mode; biotinylated FG-1Adn loaded on streptavidin biosensors; 20 mM Na-maleate (pH 5.5), 150 mM NaCl, 10 mM MgCl2, 0.05% Tween; 250 nM Scp1, 120 s association, 120 s dissociation; 1:1 Langmuir model

For `O=[N+]([O-])c1ccc(OP(=O)(O)O)cc1` [pNPP], the “colorimetric pNPP phosphatase assay, absorbance 410 nm” value (from here on “colorimetric pNPP phosphatase assay”) (Fcp1) was “inhibitory effects of FG-1Adn inhibition against FCP/SCP phosphatases using pNPP as a substrate”, the “colorimetric pNPP phosphatase assay” value (Scp2) was “inhibitory effects of FG-1Adn inhibition against FCP/SCP phosphatases using pNPP as a substrate” and the “colorimetric pNPP phosphatase assay” value (Scp3) was “inhibitory effects of FG-1Adn inhibition against FCP/SCP phosphatases using pNPP as a substrate”. For the same molecule, the “colorimetric pNPP phosphatase assay” value (Scp1 [1]) was “Lineweaver–Burk plot analysis was performed using pNPP as a substrate”.

With `COCCCOc1ccnc(C[S+]([O-])c2nc3ccccc3[nH]2)c1C` (stereo not drawn) [rabeprazole] the “almost complete inhibition of FG-1Adn binding” value (Scp1 [2]) was “rabeprazole almost completely inhibited the binding of FG-1Adn to Scp1”.

B1: Scp1 (enzyme)
chain: T4 sequence (Q9GZU7 1-261)
With B1 the Kd (FG-1Adn (human)) was 0.0487 µM.
